Measured values published in patent publication US12344610B2, “APOL1 inhibitors and methods of use” (Maze Therapeutics, Inc., priority 2022, dated 2025).
Like-named read-outs stand apart in the source and are kept apart here.

Legend:
Format in all cases: cell-based
Details in all cases: geometric mean of at least 2 assay runs, † = single assay run
[1] = system: HEK293 cells overexpressing APOL1 G2; test: APOL1 G2 HEK293 cell rescue assay (reversal of cell death caused by overexpression of APOL1)
In short: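 EC50 is the half-maximal effective concentration for reversing cell death driven by APOL1 G2 overexpression in HEK293 cells. Reported as geometric mean of at least 2 runs on separate days, each run averaging duplicate wells per plate; some values from a single run.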

[2] = system: Trypanosoma brucei Lister 427 VSG221 with APOL1 G0 recombinant protein; test: APOL1 G0 trypanosome cell rescue assay (Example B5)
In short: (§1)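 Recombinant mature APOL1 (residues 28-398, His-tag removed, E. coli-expressed, refolded from inclusion bodies, DDM buffer) at […] added with 250 trypanosomes/well in modified HMI-9 media. Duplicate 11-point 2-fold compound series, 0.4% DMSO; 20 h at 37° C, 5% CO2, then CellTiter-Glo luminescence for viability.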

[3] = system: Trypanosoma brucei Lister 427 VSG221 with APOL1 G1 recombinant protein; test: APOL1 G1 trypanosome cell rescue assay (Example B5)
In short: as §1

[4] = system: Trypanosoma brucei Lister 427 VSG221 with APOL1 G2 recombinant protein; test: APOL1 G2 trypanosome cell rescue assay (Example B5)
In short: as §1

[5] = Homo sapiens, HEK293, HEK293 overexpressing APOL1 G2
[6] = Trypanosoma brucei, 20 h, read-out: APOL1 G0 Trypanosome Rescue EC50, Trypanosoma brucei Lister 427 VSG221 with APOL1 G0 recombinant protein, 20 hours, CellTiter-Glo
[7] = Trypanosoma brucei, 20 h, read-out: APOL1 G1 Trypanosome Rescue EC50, Trypanosoma brucei Lister 427 VSG221 with APOL1 G1 recombinant protein, 20 hours, CellTiter-Glo
[8] = Trypanosoma brucei, 20 h, read-out: APOL1 G2 Trypanosome Rescue EC50, Trypanosoma brucei Lister 427 VSG221 with APOL1 G2 recombinant protein, 20 hours, CellTiter-Glo

O=C1CCc2cc(OCCN3CCC4(CC3)C(=O)Nc3ccc(Cl)cc34)cnc2N1[C@H]1C[C@@H](CO)C1 (single isomer, unassigned) [Compound 319, 5-chloro-1′-[2-({7-oxo-8-[(cis)-3-(hydroxymethyl)cyclobutyl]-5,6,7,8-tetrahydro-1,8-naphthyridin-3-yl}oxy)ethyl]-1,2-dihydrospiro[indole-3,4′-piperidin]-2-one]
EC50 [1, 5]: 41.9 nM | EC50 [2, 6]: 69.7 nM | EC50 [3, 7]: 81.1 nM | EC50 [4, 8]: 27 nM

C[C@]1(O)C[C@@H](n2c(=O)[nH]c3cc(OCCN4CCC5(CC4)C(=O)Nc4ccc(C#N)cc45)cc(C(F)(F)F)c32)C1 [Compound 470, 2-oxo-1′-[2-({2-oxo-1-[(cis)-3-hydroxy-3-methylcyclobutyl]-7-(trifluoromethyl)-2,3-dihydro-1H-1,3-benzodiazol-5-yl}oxy)ethyl]-1,2-dihydrospiro[indole-3,4′-piperidine]-5-carbonitrile]
EC50 [1, 5]: 179 nM | EC50 [2, 6]: 8.82 nM | EC50 [3, 7]: 12.4 nM | EC50 [4, 8]: 4.41 nM

C[C@]1(O)C[C@@H](n2c(=O)[nH]c3cc(OCCN4CCC5(CC4)C(=O)Nc4ccc(Cl)cc45)cc(C(F)(F)F)c32)C1 [Compound 468, 5-chloro-1′-[2-({2-oxo-1-[(cis)-3-hydroxy-3-methylcyclobutyl]-7-(trifluoromethyl)-2,3-dihydro-1H-1,3-benzodiazol-5-yl}oxy)ethyl]-1,2-dihydrospiro[indole-3,4′-piperidin]-2-one]
EC50 [1, 5]: 6.45 nM | EC50 [2, 6]: 3.72 nM | EC50 [3, 7]: 5.59 nM | EC50 [4, 8]: 2.4 nM

CN(c1ccc(OCCN2CCC3(CC2)C(=O)Nc2ccc(Cl)cc23)cc1)S(C)(=O)=O [Compound 76, N-[4-(2-{5-chloro-2-oxo-1,2-dihydrospiro[indole-3,4′-piperidin]-1′-yl}ethoxy)phenyl]-N-methylmethanesulfonamide]
EC50 [1, 5]: 47.7 nM | EC50 [2, 6]: 106 nM | EC50 [3, 7]: 126 nM | EC50 [4, 8]: 35.5 nM

C[C@]1(O)C[C@@H](n2c(=O)ccc3cc(OCCN4CCC5(CC4)C(=O)Nc4ccc(Cl)cc45)cnc32)C1 [Compound 323, 5-chloro-1′-[2-({7-oxo-8-[(cis)-3-hydroxy-3-methylcyclobutyl]-7,8-dihydro-1,8-naphthyridin-3-yl}oxy)ethyl]-1,2-dihydrospiro[indole-3,4′-piperidin]-2-one]
EC50 [1, 5]: 17.3 nM | EC50 [2, 6]: 32 nM | EC50 [3, 7]: 35.9 nM | EC50 [4, 8]: 11.8 nM

C[C@]1(O)C[C@@H](n2nnc3cc(OCCN4CCC5(CC4)C(=O)Nc4ccc(Cl)cc45)cnc32)C1 [Compound 440, 5-chloro-1′-[2-({3-[(cis)-3-hydroxy-3-methylcyclobutyl]-3H-[1,2,3]triazolo[4,5-b]pyridin-6-yl}oxy)ethyl]-1,2-dihydrospiro[indole-3,4′-piperidin]-2-one]
EC50 [1, 5]: 54.4 nM | EC50 [2, 6]: 160 nM | EC50 [3, 7]: 205 nM | EC50 [4, 8]: 70.5 nM

CS(=O)(=O)c1ccc(OCCN2CCC3(CC2)C(=O)Nc2ccc(Cl)cc23)cn1 [Compound 64, 5-chloro-1′-{2-[(6-methanesulfonylpyridin-3-yl)oxy]ethyl}-1,2-dihydrospiro[indole-3,4′-piperidin]-2-one]
EC50 [1, 5]: 163 nM | EC50 [2, 6]: 503 nM | EC50 [3, 7]: 712 nM | EC50 [4, 8]: 167 nM

CC1(O)CC(CN2C(=O)CCc3cc(OCCN4CCC5(CC4)C(=O)Nc4ccc(Cl)cc45)cnc32)C1 (stereo not shown) [Compound 327, 5-chloro-1′-[2-({8-[(3-hydroxy-3-methylcyclobutyl)methyl]-7-oxo-5,6,7,8-tetrahydro-1,8-naphthyridin-3-yl}oxy)ethyl]-1,2-dihydrospiro[indole-3,4′-piperidin]-2-one]
EC50 [1, 5]: 28.9 nM | EC50 [2, 6]: 39.9 nM | EC50 [3, 7]: 46.6 nM | EC50 [4, 8]: 13.4 nM

C[C@]1(O)C[C@@H](n2nnc3cc(OCCN4CCC5(CC4)C(=O)Nc4ccc(C#N)cc45)cc(C(F)(F)F)c32)C1 [Compound 435, 2-oxo-1′-[2-({1-[(cis)-3-hydroxy-3-methylcyclobutyl]-7-(trifluoromethyl)-1H-1,2,3-benzotriazol-5-yl}oxy)ethyl]-1,2-dihydrospiro[indole-3,4′-piperidine]-5-carbonitrile]
EC50 [1, 5]: 12.9 nM | EC50 [2, 6]: 27.1 nM | EC50 [3, 7]: 27.2 nM | EC50 [4, 8]: 14.5 nM

CC1(O)CC(CN2C(=O)CCc3cc(OCCN4CCC5(CC4)C(=O)Nc4ccc(Cl)cc45)cnc32)C1 (single isomer, unassigned) [Compound 322, 5-chloro-1′-{2-[(7-oxo-8-{[(trans) or (cis)-3-hydroxy-3-methylcyclobutyl]methyl}-5,6,7,8-tetrahydro-1,8-naphthyridin-3-yl)oxy]ethyl}-1,2-dihydrospiro[indole-3,4′-piperidin]-2-one]
EC50 ([1]; HEK293 overexpressing APOL1 G2): 18.5 nM | EC50 ([2]; read-out: APOL1 G0 Trypanosome Rescue EC50, Trypanosoma brucei Lister 427 VSG221 with APOL1 G0 recombinant protein, 20 hours, CellTiter-Glo): 29.3 nM | EC50 ([3]; read-out: APOL1 G1 Trypanosome Rescue EC50, Trypanosoma brucei Lister 427 VSG221 with APOL1 G1 recombinant protein, 20 hours, CellTiter-Glo): 34.9 nM | EC50 ([4]; read-out: APOL1 G2 Trypanosome Rescue EC50, Trypanosoma brucei Lister 427 VSG221 with APOL1 G2 recombinant protein, 20 hours, CellTiter-Glo): 11.7 nM

CS(=O)(=O)c1ccc(OCCN2CCC3(CC2)C(=O)Nc2ccc(Cl)cc23)cc1C#N [Compound 50, 5-(2-{5-chloro-2-oxo-1,2-dihydrospiro[indole-3,4′-piperidin]-1′-yl}ethoxy)-2-methanesulfonylbenzonitrile]
EC50 [1, 5]: 24.9 nM | EC50 [2, 6]: 30 nM | EC50 [3, 7]: 44.9 nM | EC50 [4, 8]: 10.2 nM

CC(c1ncc(OCCN2CCC3(CC2)C(=O)Nc2ccc(Cl)cc23)cn1)S(C)(=O)=O (stereo not shown) [Compound 1, 5-Chloro-1′-(2-{[2-(1-methanesulfonylethyl)pyrimidin-5-yl]oxy}ethyl)-1,2-dihydrospiro[indole-3,4′-piperidin]-2-one]
EC50 [1, 5]: 120 nM | EC50 [2, 6]: 225 nM | EC50 [3, 7]: 293 nM | EC50 [4, 8]: 89.6 nM

C[C@]1(O)C[C@@H](n2cnc3cc(OCCN4CCC5(CC4)C(=O)Nc4ccc(Cl)cc45)cc(C(F)(F)F)c32)C1 [Compound 352, 5-chloro-1′-[2-({1-[(cis)-3-hydroxy-3-methylcyclobutyl]-7-(trifluoromethyl)-1H-1,3-benzodiazol-5-yl}oxy)ethyl]-1,2-dihydrospiro[indole-3,4′-piperidin]-2-one]
EC50 [1, 5]: 8.6 nM | EC50 [2, 6]: 18.7 nM | EC50 [3, 7]: 18.8 nM | EC50 [4, 8]: 8.22 nM

CS(=O)(=O)c1ccc(OCCN2CCC3(CC2)C(=O)Nc2ccc(Cl)cc23)cc1F [Compound 63, 5-chloro-1′-[2-(3-fluoro-4-methanesulfonylphenoxy)ethyl]-1,2-dihydrospiro[indole-3,4′-piperidin]-2-one]
EC50 [1, 5]: 51.1 nM | EC50 [2, 6]: 118 nM | EC50 [3, 7]: 164 nM | EC50 [4, 8]: 40.9 nM

C[C@]1(O)C[C@@H](n2c(=O)ccc3cc(OCCN4CCC5(CC4)C(=O)Nc4ccc(C(F)F)cc45)cnc32)C1 [Compound 324, 5-(difluoromethyl)-1′-[2-({7-oxo-8-[(cis)-3-hydroxy-3-methylcyclobutyl]-7,8-dihydro-1,8-naphthyridin-3-yl}oxy)ethyl]-1,2-dihydrospiro[indole-3,4′-piperidin]-2-one]
EC50 [1, 5]: 25.6 nM | EC50 [2, 6]: 28.9 nM | EC50 [3, 7]: 35 nM | EC50 [4, 8]: 8.31 nM

C[C@]1(O)C[C@@H](n2cc3cc(OCCN4CCC5(CC4)C(=O)Nc4ccc(C#N)cc45)cc(C(F)(F)F)c3n2)C1 [Compound 428, 2-oxo-1′-[2-({2-[(cis)-3-hydroxy-3-methylcyclobutyl]-7-(trifluoromethyl)-2H-indazol-5-yl}oxy)ethyl]-1,2-dihydrospiro[indole-3,4′-piperidine]-5-carbonitrile]
EC50 [1, 5]: 54.3 nM | EC50 [2, 6]: 63.3 nM | EC50 [3, 7]: 71.9 nM | EC50 [4, 8]: 32.3 nM
